Laboratory results published in EP0302824A2 (priority 1987, dated 1989).
Like-named read-outs stand apart in the source and are kept apart here.

Columns and labels:
[1] = not given; remark: listed apart in the source
[2] = assay type: physicochemical; conditions: coated maize kernels in 200 ml water, 20°C, 50 rpm
[3] = assay type: physicochemical; conditions: sand column; 50 mm artificial rainfall in 48 hours; 5 g/kg a.i.
[4] = Sw = solubility in water
[5] = Solubility of terbufos in neat surfactants and PEGs, judged by eye
[6] = Solubilization of terbufos in individual and combined surfactant solutions; conditions: for Terbufos Concentration (ppm) Individual Surfactant: maximum 100 ppm terbufos in solution
[7] = Solubility of terbufos in water with increasing concentration of surfactant or association polymer
corn rootworms = assay: Field control of corn rootworms by insecticide/polymer combinations applied to the seed; assay type: in vivo, Diabrotica spp.; conditions: maize G 4733, 0-6 scale, 63 days after planting
[8] = Release of terbufos from coated corn cob granules into buffer; assay type: physicochemical
[9] = Time release of terbufos from coated maize seeds into buffer; assay type: physicochemical

CNC(=O)Oc1cccc2c1OC(C)(C)C2 [carbofuran]
Solubility of Carbofuran, ppm (1000 ppm Alipal EP110): 349 ppm | Solubility of Carbofuran, ppm (1000 ppm Ethomeen T/15): 436 ppm | Solubility of Carbofuran, ppm (1000 ppm Pluronic F68): 287 ppm | Solubility of Carbofuran, ppm (1000 ppm Triton N101): 370 ppm | increase in solubility in surfactant solution over that in water (Ethomeen T/15, 1000 ppm): 30% | Solubility of Carbofuran, ppm (H₂O): 330 ppm | increase in solubility in surfactant solution over that in water (Triton (N101), 1000 ppm): 10%

CCOP(=S)(OCC)Oc1nc(Cl)n(C(C)C)n1 [isazofos]
Solubility (ppm) ([1]; isazophos in H₂O): 62 ppm | Solubility (ppm) ([1]; isazophos, 1000 ppm A1, HLB ∼30): 84 ppm | Solubility (ppm) ([1]; isazophos, 1000 ppm A2, HLB ∼30): 58 ppm | Solubility (ppm) ([1]; isazophos, 1000 ppm A4, HLB ∼30): 180 ppm | Solubility (ppm) ([1]; isazophos, 1000 ppm A5, HLB ∼30): 11 ppm | Solubility (ppm) ([1]; isazophos, 1000 ppm AM1): 98 ppm | Solubility (ppm) ([1]; isazophos, 1000 ppm N3, HLB 13.4): 260 ppm | Solubility (ppm) ([1]; isazophos, 1000 ppm N9, HLB 22): 130 ppm | Solubility (ppm) ([1]; isazophos, 1000 ppm N11, HLB 29): 92 ppm | Solubility (ppm) ([1]; isazophos, 1000 ppm N18, HLB 17.3): 130 ppm | Solubility (ppm) ([1]; isazophos, 1000 ppm N24, HLB 15.0): 170 ppm | Released Active Substance in % After 4 Hours Association Polymer 17.1 [2]: 80.8% | Released Active Substance in % After 4 Hours Standard Polymer 18.1 [2]: 63.5% | % a.i. Analyzed in "Traditional" Coats Kernels [3]: 68.2% | % a.i. Analyzed in "Traditional" Coats Leachate [3]: < 0.5% | % a.i. Analyzed in "Traditional" Coats Sand [3]: 22.9% | % a.i. Analyzed in Association Polymer Kernels [3]: 30.1% | % a.i. Analyzed in Association Polymer Leachate [3]: 34.9% | % a.i. Analyzed in Association Polymer Sand [3]: 39.7% | Sw in ppm [4]: 150 ppm

CCOP(=S)(OCC)SCSC(C)(C)C [terbufos]
solubility in neat surfactants (no water present) or polyethylene glycols, judged by eye ([5]; 5 µl terbufos in 200 µl of Cl, C2, C4, C7, Al, N1, N4, N5, N6, N8, N12, N24, N25, N26, PEG 200 or PEG 400): Soluble | solubility in neat surfactants (no water present), judged by eye ([5]; 5 µl terbufos in 200 µl of anionic A2, A3, A5 or A6): Insoluble | Terbufos Concentration (ppm) Individual Surfactant ([6]; A2, 1000 ppm): 2.0 ppm | Terbufos Concentration (ppm) Combination Surfactant With C2 ([6]; A2 with C2, 5 ml portions (1000 ppm) of each, maximum 100 ppm): 38 ppm | Terbufos Concentration (ppm) Combination Surfactant With N3 ([6]; A2 with N3, 5 ml portions (1000 ppm) of each, maximum 100 ppm): 13 ppm | Terbufos Concentration (ppm) Individual Surfactant ([6]; A4, 1000 ppm): 3.4 ppm | Terbufos Concentration (ppm) Combination Surfactant With N3 ([6]; A4 with N3, 5 ml portions (1000 ppm) of each, maximum 100 ppm): 28 ppm | Terbufos Concentration (ppm) Individual Surfactant ([6]; C2, 1000 ppm): 12 ppm | Terbufos Concentration (ppm) Combination Surfactant ([6]; C2 with N3, 5 ml portions (1000 ppm) of each, maximum 100 ppm): 64 ppm | Terbufos Concentration (ppm) Individual Surfactant ([6]; N3, 1000 ppm): 65 ppm | Terbufos Concentration (ppm) Individual Surfactant ([6]; N7, 1000 ppm): 1.1 ppm | Terbufos Concentration (ppm) Combination Surfactant With C2 ([6]; N7 with C2, 5 ml portions (1000 ppm) of each, maximum 100 ppm): 6.7 ppm | Terbufos Concentration (ppm) Combination Surfactant With N3 ([6]; N7 with N3, 5 ml portions (1000 ppm) of each, maximum 100 ppm): 54 ppm | Terbufos Concentration (ppm) Individual Surfactant ([6]; N8, 1000 ppm): 1.2 ppm | Terbufos Concentration (ppm) Combination Surfactant With C2 ([6]; N8 with C2, 5 ml portions (1000 ppm) of each, maximum 100 ppm): 39 ppm | Terbufos Concentration (ppm) Combination Surfactant With N3 ([6]; N8 with N3, 5 ml portions (1000 ppm) of each, maximum 100 ppm): 40 ppm | Terbufos Concentration (ppm) Individual Surfactant ([6]; N10, 1000 ppm): 0.7 ppm | Terbufos Concentration (ppm) Combination Surfactant With C2 ([6]; N10 with C2, 5 ml portions (1000 ppm) of each, maximum 100 ppm): 36 ppm | Terbufos Concentration (ppm) Combination Surfactant With N3 ([6]; N10 with N3, 5 ml portions (1000 ppm) of each, maximum 100 ppm): 38 ppm | Terbufos Concentration (ppm) Individual Surfactant ([6]; N11, 1000 ppm): 0.5 ppm | Terbufos Concentration (ppm) Combination Surfactant With C2 ([6]; N11 with C2, 5 ml portions (1000 ppm) of each, maximum 100 ppm): 9.5 ppm | Terbufos Concentration (ppm) Combination Surfactant With N3 ([6]; N11 with N3, 5 ml portions (1000 ppm) of each, maximum 100 ppm): 24 ppm | terbufos concentration ([7]; 575 ppm surfactant a) (N3, Triton N101)): 64 ppm | terbufos concentration ([7]; 603 ppm surfactant portion b) (half of 1206 ppm 1:1 association polymer PA 5000:N3)): 52 ppm | Ratings for corn rootworm damage (corn rootworms; Granule, 0.1 g m⁻¹): 2.2 | Ratings for corn rootworm damage (corn rootworms; seed treatment Association Polymer, 10 g/kg): 2.6 | Ratings for corn rootworm damage (corn rootworms; seed treatment PVAc/PVAl, 10 g/kg): 3.1 | Ratings for corn rootworm damage (corn rootworms; seed treatment PVAc/PVAl, 30 g/kg): 2.8 | Terbufos Concentration (ppm) ([8]; Buffer = 10 ml (Triton = 1000 ppm), 0.5 hours): 61 ppm | Terbufos Concentration (ppm) ([8]; Buffer = 10 ml (Triton = 1000 ppm), 1 hour): 86 ppm | Terbufos Concentration (ppm) ([8]; Buffer = 10 ml (Triton = 1000 ppm), 2 hours): 104 ppm | Terbufos Concentration (ppm) ([8]; Buffer = 10 ml (Triton = 1000 ppm), 3 hours): 81 ppm | Terbufos Concentration (ppm) ([8]; Buffer = 10 ml (Triton = 1000 ppm), 4 hours): 60 ppm | Terbufos Concentration (ppm) ([8]; Buffer = 10 ml (Triton = 1000 ppm), 5 hours): 60 ppm | Terbufos Concentration (ppm) ([8]; Buffer = 20 ml (Triton = 500 ppm), 0.5 hours): 53 ppm | Terbufos Concentration (ppm) ([8]; Buffer = 20 ml (Triton = 500 ppm), 1 hour): 39 ppm | Terbufos Concentration (ppm) ([8]; Buffer = 20 ml (Triton = 500 ppm), 3 hours): 34 ppm | Terbufos Concentration (ppm) ([8]; Buffer = 20 ml (Triton = 500 ppm), 4 hours): 44 ppm | Terbufos Concentration (ppm) ([8]; Buffer = 20 ml (Triton = 500 ppm), 5 hours): 51 ppm | Terbufos Concentration (ppm) ([8]; Buffer = 20 ml (Triton = 500 ppm), 22 hours): 29 ppm | Terbufos Concentration (ppm) ([8]; Buffer = 100 ml (Triton = 100 ppm), 0.25 hours): 2.7 ppm | Terbufos Concentration (ppm) ([8]; Buffer = 100 ml (Triton = 100 ppm), 0.5 hours): 3.2 ppm | Terbufos Concentration (ppm) ([8]; Buffer = 100 ml (Triton = 100 ppm), 1 hour): 3.3 ppm | Terbufos Concentration (ppm) ([8]; Buffer = 100 ml (Triton = 100 ppm), 1.5 hours): 4.3 ppm | Terbufos Concentration (ppm) ([8]; Buffer = 100 ml (Triton = 100 ppm), 2 hours): 4.7 ppm | Terbufos Concentration (ppm) ([8]; Buffer = 100 ml (Triton = 100 ppm), 3 hours): 4.6 ppm | Terbufos Concentration (ppm) ([8]; Buffer = 100 ml (Triton = 100 ppm), 4 hours): 5.9 ppm | Terbufos Concentration (ppm) ([8]; Buffer = 100 ml (Triton = 100 ppm), 5 hours): 5.5 ppm | Terbufos Concentration (ppm) ([8]; Buffer = 100 ml (Triton = 100 ppm), 6 hours): 5.1 ppm | Terbufos Concentration (ppm) ([8]; Buffer = 100 ml (Triton = 100 ppm), 7 hours): 6.7 ppm | Terbufos Concentration (ppm) ([8]; Buffer = 100 ml (Triton = 100 ppm), 28 hours): 7.5 ppm | Terbufos Concentration (ppm), Time Release from Coated Seeds ([9]; Association Polymer (no PVAc), Buffer pH = 5.6, 0.5 hour): 370 ppm | Terbufos Concentration (ppm), Time Release from Coated Seeds ([9]; Association Polymer (no PVAc), Buffer pH = 5.6, 2 hours): 350 ppm | Terbufos Concentration (ppm), Time Release from Coated Seeds ([9]; Association Polymer (no PVAc), Buffer pH = 5.6, 4 hours): 360 ppm | Terbufos Concentration (ppm), Time Release from Coated Seeds ([9]; Association Polymer+PVAc, Buffer pH 5.6, 0.5 hour): 130 ppm | Terbufos Concentration (ppm), Time Release from Coated Seeds ([9]; Association Polymer+PVAc, Buffer pH 5.6, 2 hours): 147 ppm | Terbufos Concentration (ppm), Time Release from Coated Seeds ([9]; Association Polymer+PVAc, Buffer pH 5.6, 4 hours): 210 ppm | Terbufos Concentration (ppm), Time Release from Coated Seeds ([9]; Association Polymer+PVAc, Buffer pH 5.6, 26 hours): 163 ppm | Terbufos Concentration (ppm), Time Release from Coated Seeds ([9]; Association Polymer+PVAc, Buffer pH 5.6, 69.5 hours): 122 ppm | Terbufos Concentration (ppm), Time Release from Coated Seeds ([9]; Association Polymer+PVAc, Buffer pH 8.3, 0.5 hour): 210 ppm | Terbufos Concentration (ppm), Time Release from Coated Seeds ([9]; Association Polymer+PVAc, Buffer pH 8.3, 2 hours): 240 ppm | Terbufos Concentration (ppm), Time Release from Coated Seeds ([9]; Association Polymer+PVAc, Buffer pH 8.3, 4 hours): 260 ppm | Terbufos Concentration (ppm), Time Release from Coated Seeds ([9]; Association Polymer+PVAc, Buffer pH=3.3, 2 hours): 22 ppm | Terbufos Concentration (ppm), Time Release from Coated Seeds ([9]; Association Polymer+PVAc, Buffer pH=3.3, 4 hours): 7.6 ppm | Terbufos Concentration (ppm), Time Release from Coated Seeds ([9]; PVAc, Buffer pH=5.6, 4 hours): 1.9 ppm | Terbufos Concentration (ppm), Time Release from Coated Seeds ([9]; PVAc, Buffer pH=5.6, 26 hours): 2.4 ppm
